Laboratory results published in patent US8227625B2, “4,5,6,7-tetrahydrobenzo[b]thiophene derivatives and their use as sigma receptor ligands” (Laboratorios del Dr. Esteve, S.A., priority 2006, dated 2012).

Assays:
Sigma-1 receptor = target: T1, Sigma-1 receptor (Cavia porcellus, UniProt Q60492); test: Sigma-1 receptor radioligand binding assay, [3H](+)-pentazocine, guinea pig brain membranes; details: [3H](+)-pentazocine 0.5 nM; for % Binding σ1 10^−7M: compound at 10^−7M; for % Binding σ1 10^−8M: compound at 10^−8M
T1 construct: from tissue; host or cells: guinea pig brain membranes
T1 sequence (Q60492 whole entry): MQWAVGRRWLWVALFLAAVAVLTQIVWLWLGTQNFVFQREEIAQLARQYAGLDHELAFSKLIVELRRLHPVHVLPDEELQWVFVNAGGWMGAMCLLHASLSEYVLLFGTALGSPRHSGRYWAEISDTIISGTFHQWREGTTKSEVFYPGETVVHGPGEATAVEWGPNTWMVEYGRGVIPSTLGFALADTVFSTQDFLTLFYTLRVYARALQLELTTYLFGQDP
Experimental: Brain membrane preparation and binding assays for the al-receptor were performed as described (DeHaven-Hudkins et al., 1992) with some modifications. In brief, guinea pig brains were homogenized in 10 vols. (w/v) of Tris-HCl 50 mM 0.32 M sucrose, pH 7.4, with a Kinematica Polytron PT 3000 at 15000 r.p.m. for 30 s. The homogenate was centrifuged at 1000 g for 10 min at 4° C. and the supernatants collected and centrifuged again at 48000 g for 15 min at 4° C. The pellet was resuspended in 10 volumes of Tris-HCl buffer (50 mM, pH 7.4), incubated at 37° C. for 30 min, and centrifuged at 48000 g for 20 min at 4° C. Following this, the pellet was resuspended in fresh Tris-HCl buffer (50 mM, pH 7.4) and stored on ice until use.
Each assay tube contained 10 μL of [^3H](+)-pentazocine (final concentration of 0.5 nM), 900 μL of the tissue suspension to a final assay volume of 1 mL and a final tissue concentration of approximately 30 mg tissue net weight/mL. Non-specific binding was defined by addition of a final concentration of 1 μM haloperidol. All tubes were incubated at 37° C. for 150 min before termination of the reaction by rapid filtration over Schleicher & Schuell GF 3362 glass fibre filters [previously soaked in a solution of 0.5% polyethylenimine for at least 1 h]. Filters were then washed with four times with 4 mL of cold Tris-HCl buffer (50 mM, pH 7.4). Following addition of scintillation cocktail, the samples were allowed to equilibrate overnight. The amount of bound radioactivity was determined by liquid scintillation spectrometry using a Wallac Winspectral 1414 liquid scintillation counter. Protein concentrations were determined by the method of Lowry et al. (1951).

% Binding σ1 10^−7M (Sigma-1 receptor) [%]	% Binding σ1 10^−8M (Sigma-1 receptor) [%]	melting point [°C]	SMILES
89.3	48.6		CN(C/C=C1\CCCc2sccc21)CCc1ccccc1 [Example 7, (E)-N-(2-(6,7-dihydrobenzo[b]thien-4(5H)-ylidene)ethyl)-N-methyl-2-phenylethanamine]
23	5		C(/CN1CCCCC1)=C1/CCCc2sccc21 [Example 9, (E)-1-(2-(6,7-dihydrobenzo[b]thien-4(5H)-ylidene)ethyl)piperidine]
70.6	27.3		CN(C/C=C1\CCCc2sccc21)Cc1ccccc1 [Example 3, (E)-N-benzyl-2-(6,7-dihydrobenzo[b]thien-4(5H)-ylidene)-N-methylethanamine]
		162 to 164	O=C(O)C(=O)O.c1ccc2c(c1)ccn2C1CCN(CCC2CCCc3sccc32)CC1 (stereo not shown) [Example 79, 1-(1-(2-(4,5,6,7-tetrahydrobenzo[b]thiophen-4-yl)ethyl)piperidin-4-yl)-1H-indole oxalate]
		166 to 168	O=C(O)C(=O)O.O=C1N(c2ccc(C(F)(F)F)cc2)CCC12CCN(CCC1CCCc3sccc31)CC2 (stereo not shown) [Example 89, 2-(4-trifluoromethylphenyl)-8-[2-(4,5,6,7-tetrahydrobenzo[b]thiophen-4-yl)-ethyl]-2,8-diazaspiro[4.5]decan-1-one oxalate]
		139 to 141	CC1CCN(C/C=C2\CCCc3sccc32)CC1.O=C(O)C(=O)O [Example 12, (E)-1-(2-(6,7-dihydrobenzo[b]thien-4(5H)-ylidene)ethyl)-4-methylpiperidine oxalate]
		139 to 141	CN(C/C=C1\CCCc2sccc21)Cc1ccccc1.O=C(O)C(=O)O [Example 4, (E)-N-benzyl-2-(6,7-dihydrobenzo[b]thien-4(5H)-ylidene)-N-methylethanamine oxalate]
		184 to 185	O=C(O)C(=O)O.OC1(c2ccc(Cl)cc2)CCN(CCC2CCCc3sccc32)CC1 (stereo not shown)
		180 to 181	N#Cc1ccc2c(c1)CN(CCC1CCCc3sccc31)CC2.O=C(O)C(=O)O (stereo not shown) [Example 93, 2-(2-(4,5,6,7-tetrahydrobenzo[b]thiophen-4-yl)ethyl)-1,2,3,4-tetrahydroisoquinoline-7-carbonitrile oxalate]
		172 to 173	CC(C)(C)N1CCC2(CCN(CCC3CCCc4sccc43)CC2)C1=O.O=C(O)C(=O)O (stereo not shown) [Example 81, 2-tert-butyl-8-[2-(4,5,6,7-tetrahydrobenzo[b]thiophen-4-yl)-ethyl]-2,8-diazaspiro[4.5]decan-1-one oxalate]
84.5	32.8		C(/CN1CCC(c2ccccc2)CC1)=C1/CCCc2sccc21 [Example 5, (E)-1-(2-(6,7-dihydrobenzo[b]thien-4(5H)-ylidene)ethyl)-4-phenylpiperidine]
		207 to 208	O=C(O)C(=O)O.c1ccc2oc(C3CCN(CCC4CCCc5sccc54)CC3)cc2c1 (stereo not shown) [Example 52, 4-(benzofuran-2-yl)-1-(2-(4,5,6,7-tetrahydrobenzo[b]thiophen-4-yl)ethyl)piperidine oxalate]
		205 to 206	COc1ccc(N2CCC3(CCN(CCC4CCCc5sccc54)CC3)C2=O)cc1.O=C(O)C(=O)O (stereo not shown) [Example 85, 2-(4-Methoxyphenyl)-8-[2-(4,5,6,7-tetrahydrobenzo[b]thiophen-4-yl)-ethyl]-2,8diazaspiro[4.5]decan-1-one oxalate]
		201 to 202	Clc1ccc(C2CCN(CCC3CCCc4sccc43)CC2)cc1.O=C(O)C(=O)O (stereo not shown) [Example 34, 4-(4-chlorophenyl)-1-(2-(4,5,6,7-tetrahydrobenzo[b]thiophen-4-yl)ethyl)piperidine oxalate]
		200 to 201	O=C(O)C(=O)O.O=C1N(c2ccccc2)CCC12CCN(CCC1CCCc3sccc31)CC2 (stereo not shown) [Example 87, 2-phenyl-8-[2-(4,5,6,7-tetrahydrobenzo[b]thiophen-4-yl)-ethyl]-2,8-diazaspiro[4.5]decan-1-one oxalate]
		179 to 181	Fc1ccc(C2CCN(CCC3CCCc4sccc43)CC2)cc1.O=C(O)C(=O)O (stereo not shown) [Example 46, 4-(4-fluorophenyl)-1-(2-(4,5,6,7-tetrahydrobenzo[b]thiophen-4-yl)ethyl)piperidine oxalate]
		172 to 176	O=C(O)C(=O)O.c1ccc2c(c1)COC21CCN(CCC2CCCc3sccc32)CC1 (stereo not shown)
		155 to 157	Cc1nc2ccccc2n1C1CCN(CCC2CCCc3sccc32)CC1.O=C(O)C(=O)O (stereo not shown) [Example 61, 2-methyl-1-(1-(2-(4,5,6,7-tetrahydrobenzo[b]thiophen-4-yl)ethyl)piperidin-4-yl)-1H-benzo[d]imidazole oxalate]
70.9	18.2		CC1CCN(C/C=C2\CCCc3sccc32)CC1 [Example 11, (E)-1-(2-(6,7-dihydrobenzo[b]thien-4(5H)-ylidene)ethyl)-4-methylpiperidine]
		180 to 182	FC(F)(F)c1ccc(C2CCN(CCC3CCCc4sccc43)CC2)cc1.O=C(O)C(=O)O (stereo not shown) [Example 26, 1-(2-(4,5,6,7-tetrahydrobenzo[b]thiophen-4-yl)ethyl)-4-(4-(trifluoromethyl)phenyl)piperidine oxalate]
